# From patent US20100130579A1, “CANCER THERAPY” (Georgetown University, priority 2006, published 2010)
# Legend:
# [1] = system: cyclin D1 protein; test: Western blot of cyclin D1 protein levels; assay type: cell-based, human; settings: 3 days
# Description: FIGS. 3A-3C. Mahanine down-regulates cyclin D1 protein in prostate cancer cells. FIG. 3A and FIG. 3B: Western blots showing cyclin D1 protein levels in PC3 (A) and LNCaP (B) cells treated with 0, 1, 2 and 3 μg/ml mahanine for 3 days. Protein lysates (50 μg) from PC3 and LNCaP cells were resolved on 12% SDS-PAGE, and immunoblots were probed with antibodies to cyclin D1. All immunoblots were re-probed with β-actin antibodies to ensure equal loading. Representative photographs from an experiment that was repeated thrice. Quantitative analyses of relative levels of cyclin D1 proteins are shown on the right panels. […] FIG. 3C: PC3 cells were plated on chamber slides and treated with or without 2 μg/ml mahanine for 2 days. Cells were then fixed in methanol, incubated with cyclin D1 antibody overnight, Alexi Fluor-conjugated secondary antibodies for 1 hour and counter stained with propidium iodide (PI). Slides were then mounted and examined using a fluorescence microscope. Photographs were taken at the same magnification (×20) and then transported to Photoshop. Representative photographs from an experiment that was repeated twice.
# Western blots analysis: Protein lysates were prepared from PC3 and LNCaP cells that were treated with or without mahanine. […] Band intensities were quantified by utilizing ImageJ software (NIH, Bethesda, Md.).
# [2] = system: RASSF1 gene; test: Gene array (microarray) analysis of RASSF1 expression; assay type: cell-based, human; settings: PC3 cells, 2 μg/ml mahanine, 2 days, compared to vehicle-treated control
# Description: FIGS. 1A-1D. Mahanine induces RASSF1A in prostate and other cancer cells. FIG. 1A: Microarray analyses of PC3 cells treated with ([…] (+) or vehicle (−) for 2 days, RNA was extracted and microarray analysis was performed. FIG. 1B: RT-PCR data showing the expression of RASSF1A and GAPDH in untreated normal prostate epithelial cells (PrEC) and human prostate cancer cells (PC3). FIG. 1C: PC3 (left panel) and LNCaP (right panel) cells were treated with 0, 1, 2 and 3 μg/ml mahanine for 3 days. RNA was extracted, and RT-PCR assays were performed to detect RASSF1A and GAPDH expression. Representative photograph from an experiment that was repeated thrice. Quantitative estimations of relative levels of RASSF1A mRNAs (lower panels) were determined by densitometric measurements of RT-PCR gels from three independent experiments after normalization with GAPDH. […]
# Microarray analysis: Total RNA was isolated from […] cells treated with or without mahanine using TRIZOL reagent (Invitrogen Corp., Carlsbad, Calif.). […] RNA was evaluated by electrophoresis before continuing with probe synthesis and hybridization. […] Following repetitive washing in saline-sodium citrate/SDS, hybridized cDNA probes were detected by chemiluminescence. […] Bound biotinylated cDNA probe was detected with alkaline phosphatase-conjugated streptavidin and CDP-Star chemiluminescent substrate (SuperArray). […]
# [3] = system: PC3 cells; test: Flow cytometric cell cycle analysis, PC3; assay type: cell-based, human; settings: 3 days
# Description: FIG. 4A-4B. Mahanine arrests prostate cancer cells at G0/G1 phase of cell cycle. To determine if down-regulation of cyclin D1 by mahanine treatments affect cell cycle, PC3 4(A) and LNCaP 4(B) cells were treated with 0, 1 and 2 μg/ml mahanine for 3 days. After treatment, flow cytometric analyses were performed. The percentage of cells in the G0/G1, S and G2/M-phase of the cell cycle were shown on right. FACS analysis of PC3 and LNCaP prostate cancer cells with vehicle or 2 μg/ml mahanine are shown in the left panel. Values are the mean from two independent experiments in duplicates.
# Since cyclin D1 regulates cell cycle progression at the G0/G1 phase, Aplicants examined the cell cycle profile of PC3 and LNCaP cells in the presence of various concentrations of mahanine.
# [4] = system: LNCaP and PC3 cells; settings: 3 μg/ml; cited from earlier work
# [5] = system: caspase-3; settings: PC3 cells; cited from earlier work
structure (smiles),measurement,setting,value
CC(C)=CCC[C@@]1(C)C=Cc2c(c(C)cc3c2[nH]c2cc(O)ccc23)O1 [mahanine],cyclin D1 protein levels decreased to,"[1]; PC3 cells, 1 μg/ml, p<0.01",about 40%
same,cyclin D1 protein (Western blot),"[1]; PC3 cells, 1, 2 and 3 μg/ml",dose-dependent decrease
same,RASSF1 gene expression (gene array),[2],dramatically induced
same,cells in S-phase,"[3]; 1 μg/ml, vehicle 7.5%",decreased the S-phase
same,cells in G0/G1-phase,"[3]; 1 μg/ml, vehicle 26%",increased the G0/G1-phase
same,cells in G0/G1-phase,[3]; 2 μg/ml,further increased
same,cells in S-phase,[3]; 2 μg/ml,completely abolished
same,apoptosis,[4],induces apoptosis
same,caspase-3 cleavage and activation,[5],greatly increased caspase-3 cleavage and activation
